Source: patent US4363923A, “4-Halgeno-oxetan-2-ones and process for their production” (Ciba-Geigy Corporation, priority 1980, dated 1982)
Values after ≈ are worked out from the molar mass of the structure shown.

Assays:
Type in all cases: cell-based
Tribonema aequale = assay: Test demonstrating algistatic activity; conditions: 504 h, 3 week incubation, shaking water bath, read-out: Minimum inhibitory Concentration, MIC
Method: (§1) The organisms against which the compounds are to be tested are grown in an Erlenmeyer flask in a nutrient medium under sterile conditions on a shaking water bath at 18° C. with exposure (14 hours in light alternating with 10 hours in the dark).
(§2) Tests are carried out against three algae, namely the blue algae
and the algae with brown chromatophors
(c) the widespread, unbranched filament-forming Tribonema aequale (C) occurring in bodies of water especially in the spring at low temperature or in the autumn, even in mild winters.
(§3) The composition of the medium is as follows (according to Algae broth, Difco Laboratories):
(§4) dissolved in 1 liter of distilled water. The nutrient medium treated with the biocide is innoculated with the respective algae suspension such that a final dilution of 1/100 (algae divided with a stirrer) is attained. Evaluation is made after a 3 week incubation in the Erlenmeyer flask on a shaking water bath.

Phormidium foveolarum = assay: Test demonstrating algistatic activity; conditions: Nodosilinea foveolarum, 504 h, 3 week incubation, shaking water bath, read-out: Minimum inhibitory Concentration, MIC
Method: as §1, §2
(a) Phormidium foveolarum (A) which lives in polluted water or moist earth and forms trichomes;
as §3, §4

Ulothrix subtilissima = assay: Test demonstrating algistatic activity; conditions: Klebsormidium subtilissimum, 504 h, 3 week incubation, shaking water bath, read-out: Minimum inhibitory Concentration, MIC
Method: as §1, §2
(b) the simple filament-forming Ulothrix subtilissima (B) generally found at colder times of the year in rapidly flowing water;
as §3, §4

[1] = tested on: mixed culture of slime-forming bacteria; assay: Bactericidal test on a mixed culture of slime-forming bacteria in saline; conditions: 30 ppm, start 10^7 organisms/ml in saline
Method: A mixed culture of slime-forming bacteria including Pseudomonas aeruginosa, Enterobacter aerogenes, Escherichia coli, Proteus vulgaris, Bacillus mycoides and Staphylococcus aureus in saline containing 10^7 organisms/ml was treated with 30 ppm of the product of Example 2.

O=C1CC(Cl)(CC(Cl)(Cl)Cl)O1 (centres unmarked) [Example 2, 4-chloro-4-(2,2,2-trichloroethyl)oxetan-2-one]
MIC (Tribonema aequale): 30 µg/mL (≈ 126 µM) | MIC (Phormidium foveolarum): 30 µg/mL (≈ 126 µM) | MIC (Ulothrix subtilissima): 30 µg/mL (≈ 126 µM) | number of organisms reduced to ([1]; after one hour): 10^2 organisms/ml | killing of bacteria ([1]; within 24 hours): all the bacteria had been killed
